# Entries after “also recorded” stand apart in the source; their conditions may differ.
# Test system: acoustic startle and prepulse inhibition in rats
# Assay: Startle testing, prepulse inhibition (PPI) in rats
# Type: in vivo
# Conditions: rats; 0.5 mg/kg, s.c.
# Excerpt: (§1) Instruments) were used for rat experiments (details on startle apparatus and measures, see Male Non-Swiss Albino mice and male Sprague-Dawley rats (Harlan Sprague-Dawley) were housed (4 mice/cage; 2 rats/cage) in rooms with temperature and humidity controlled and water and food (Harlan Teklad) freely available. Mice were kept on a 12-hr light:dark cycle, whereas rats were kept on a 12-hr reverse light:dark cycle. For locomotor and observation experiments in mice, plastic 20×20×30 cm activity cages were equipped with photocell beams (AccuScan Instruments). Startle chambers (San Diego Instruments) were used for rat experiments (for details on startle apparatus and measures, see Mansbach et al., (1988) Psychopharmacology 94:507-14).
# Rats were tested and groups (n=10) matched for levels of startle reactivity and prepulse inhibition (PPI; see Mansbach et al., (1988) Psychopharmacology 94:507-14). Two days later, test sessions started and consisted of a 5-min acclimation period with a constant background noise (65 dB), followed by 60 presentations of acoustic stimuli to measure acoustic startle responses. The 60 trials consisted of: twenty two 40-ms presentations of a 120 dB broadband pulse, ten 20-ms presentations of each prepulse intensity (68, 71, 77 dB) 100 ms prior to a 40-msec presentation of a 120 dB broadband pulse, and 8 NOSTIM trials in which no stimuli were delivered in order to assess general motor activation in the rats. Thirty min before testing, rats were treated with sterile water (s.c.), risperidone (1.0 mg/kg, i.p.), or AC-90179 (s.c.). Five min later, rats were administered DOI (0.5 mg/kg, s.c.) or 0.9% saline (s.c.). One-week later, rats were administered the same pretreatment drug or vehicle and crossed over to receive the treatment opposite to that they received the previous week. Startle magnitudes and percent PPI for the three prepulse intensities were calculated as described elsewhere (Bakshi, et al., (1994) J. Pharmacol. Exp. Ther. 271:787-94) and ANOVAs with repeated measures performed.
row,SMILES,effect on PPI
1,"COc1cc(CC(C)N)c(OC)cc1I (stereo not drawn) [DOI, reference compound]",significantly disrupted PPI

# Same assay, conditions: rats; 3-way repeated measures ANOVA
row,SMILES,effect on startle magnitude
1,Cc1nc2n(c(=O)c1CCN1CCC(c3noc4cc(F)ccc34)CC1)CCCC2 [risperidone],no effect on startle magnitude

# Same assay, conditions: rats; DOI 0.5 mg/kg s.c.; AC-90179 s.c., risperidone 1.0 mg/kg i.p.
row,SMILES,restoration of PPI in DOI-treated rats
1,Cc1nc2n(c(=O)c1CCN1CCC(c3noc4cc(F)ccc34)CC1)CCCC2 [risperidone],effective in restoring PPI in DOI-treated rats; also recorded: significant effects

# Same assay, conditions: saline (vehicle)-treated rats; AC-90179 s.c., risperidone 1.0 mg/kg i.p.
row,SMILES,effect on PPI on its own
1,Cc1nc2n(c(=O)c1CCN1CCC(c3noc4cc(F)ccc34)CC1)CCCC2 [risperidone],no effect on PPI by itself

# Test system: DOI-induced head twitches in mice
# Assay: Observation for head twitches in DOI-treated mice
# Type: in vivo
# Conditions: mice; 2.5 mg/kg, i.p., 15 min; score 0-6
# Excerpt: as §1
# Mice were treated with 2.5 mg/kg DOI i.p. Five min later, mice were treated with AC-90179 s.c. and placed into activity cages. Ten min later, mice were observed using a repeated sampling technique. […] Each dose combination was tested in a separate group of animals (n=8) and the experimenter was blind to drug conditions. Head twitch scores were averaged followed by analysis of variance (ANOVA) and post-hoc Dunnett's t-test comparisons.
# The effect of various compounds on head twitch behavior in mice treated with DOI was observed as described in Example 139. Animals received 0.1-30 mg/kg of the compound indicated via subcutaneous injection. MED indicates the minimum effective dose at which a statistically significant reduction in head twitching score (described above) was observed. MED=minimum effective dose in vivo.
row,SMILES,average head twitch score
1,"COc1cc(CC(C)N)c(OC)cc1I (stereo not drawn) [DOI, reference compound]","2.6 (±0.3, S.E.M.)"

# Same assay, conditions: statistically significant reduction in head twitching score; DOI-treated mice; 0.1-30 mg/kg subcutaneous injection
row,SMILES,MED (minimum effective dose in vivo)
1,"COc1ccc(CC(=O)N(Cc2ccc(C)cc2)C2CCN(C3CCC3)CC2)cc1 [Compound 47AKU-20, 2-(4-Methoxyphenyl)-N-(4-methylbenzyl)-N-(1-cyclobutylpiperidin-4-yl)acetamide]",≦10 mg/kg
2,"COc1ccc(CC(=O)N(CCc2ccc(F)cc2)C2CCN(C)CC2)cc1 [Compound 50ELH93A, 2-(4-Methoxyphenyl)-N-(2-4-(fluorophenyl)ethyl)-N-(1-methylpiperidin-4-yl)acetamide]",≦10 mg/kg
3,"Cc1ccc(CN(C(=O)Cc2ccccc2)C2CCN(C)CC2)cc1 [Compound 47AKU-13, 2-Phenyl-N-(4-methylbenzyl)-N-(1-methylpiperidin-4-yl)-acetamide]",≦10 mg/kg
4,"Cc1ccc(CN(C(=O)Cc2ccc(Cl)cc2)C2CCN(C3CCC3)CC2)cc1 [Compound 47AKU-19, 2-(4-Chlorophenyl)-N-(4-methylbenzyl)-N-(1-cyclobutylpiperidin-4-yl)-acetamide]",>10 mg/kg
5,"CN1CCC(N(CCc2ccccc2)C(=O)NCc2ccccc2)CC1 [Compound 47AKU-25, N-Phenethyl-N-(1-methylpiperidin-4-yl)-N′-benzyl-carbamide]",>10 mg/kg
6,"Cc1ccc(CN(C(=O)Cc2ccc(Cl)cc2)C2CCN(C3CCCC3)CC2)cc1 [Compound 47AKU-11, 2-(4-Chlorophenyl)-N-(4-methylbenzyl)-N-(1-cyclopentylpiperidin-4-yl)-acetamide]",~10 mg/kg
7,"CCOc1ccc(CC(=O)N(Cc2ccc(F)cc2)C2CCN(C)CC2)cc1 [Compound 63ELH21, 2-(4-Ethoxyphenyl)-N-(4-fluorobenzyl)-N-(1-methylpiperidin-4-yl)acetamide]",≦10 mg/kg
8,"Cc1ccc(CN(C(=O)Cc2ccc(Cl)cc2)C2CCN(C(C)C)CC2)cc1 [Compound 47AKU-7, 2-(4-Chlorophenyl)-N-(4-methylbenzyl)-N-(1-isopropylpiperidin-4-yl)acetamide]",≦10 mg/kg
9,"COc1ccc(CC(=O)N(Cc2ccc(C)cc2)C2CCN(Cc3ccccc3)CC2)cc1.Cl [Compound 26HCH17, N-((4-Methylphenyl)methyl)-N-(1-(phenylmethyl)piperidin-4-yl)-4-methoxyphenylacetamide hydrochloride]",30 mg/kg
10,"CCOc1ccc(CC(=O)N(CCc2ccc(F)cc2)C2CCN(C)CC2)cc1 [Compound 63ELH20, 2-(4-ethoxyphenyl)-N-[2-(4-fluorophenyl)ethyl]-N-(1-methylpiperidin-4-yl)acetamide]",≦10 mg/kg
11,"COc1ccc(CC(=O)N(Cc2ccc(C)cc2)C2CCN(CC3CCCCC3)CC2)cc1 [Compound 42ELH45, 2-(4-Methoxyphenyl)-N-(4-methylbenzyl)-N-(1-cyclohexylmethylpiperidin-4-yl)acetamide]",30 mg/kg
12,"Cc1ccc(CN(C(=O)NCc2ccccc2)C2CCN(C)CC2)cc1 [Compound 47AKU-22, N-(4-Methylbenzyl)-N-(1-methylpiperidin-4-yl)-N′-benzyl-carbamide]",≦10 mg/kg
13,"COc1ccc(CNC(=O)N(Cc2ccc(C)cc2)C2CCN(C)CC2)cc1 [Compound 47AKU-44, N-(4-Methylbenzyl)-N-(1-methylpiperidin-4-yl)-′N′-(4-methoxybenzyl)-carbamide]",≦10 mg/kg
14,"COc1ccc(CC(=O)N(CCCc2ccccc2)C2CCN(C)CC2)cc1 [Compound 50ELH65, 2-(4-Methoxyphenyl)-N-(3-phenyl-1-propyl)-N-(1-methylpiperidin-4-yl)acetamide]",≦10 mg/kg
15,"Cc1ccc(CN(C(=O)Cc2ccc(F)cc2)C2CCN(C)CC2)cc1 [Compound 47AKU-14, 2-(4-Flourophenyl)-N-(4-methylbenzyl)-N-(1-methylpiperidin-4-yl)-acetamide]",≦10 mg/kg
16,"CCOc1ccc(CC(=O)N(Cc2ccc(C)cc2)C2CCN(C)CC2)cc1 [Compound 58AKU-4, 2-(4-Ethoxyphenyl)-N-(4-methylbenzyl)-N-(1-methylpiperidin-4-yl)acetamide]",≦10 mg/kg
17,"CCN1CCC(N(Cc2ccc(C)cc2)C(=O)Cc2ccc(OC)cc2)CC1 [Compound 42ELH80, 2-(4-Methoxyphenyl)-N-(4-methylbenzyl)-N-(1-ethylpiperidin-4-yl)acetamide]",≦10 mg/kg
18,"COc1ccc(CC(=O)N(Cc2ccc(C)cc2)C2CCN(C3CCCC3)CC2)cc1 [Compound 42ELH75, 2-(4-Methoxyphenyl)-N-(4-methylbenzyl)-N-(1-cyclopentylpiperidin-4-yl)acetamide]",≦10 mg/kg
19,"COc1ccc(CC(=O)N(Cc2ccc(C)cc2)C2CC3CCC(C2)N3C)cc1 (stereo not drawn) [Compound 47AKU-21, 2-(4-Methoxyphenyl)-N-(4-methylbenzyl)-N-(tropin-4-yl)acetamide]",>10 mg/kg
20,"Cc1ccc(CN(C(=O)Cc2ccc(Cl)cc2)C2CCN(CCO)CC2)cc1 [Compound 47AKU-18, 2-(4-Chlorophenyl)-N-(4-methylbenzyl)-N-(1-(2-hydroxyethyl)-piperidin-4-yl)-acetamide]",≧10 mg/kg
21,"COc1ccc(CC(=O)N(Cc2ccc(Cl)cc2)C2CCN(C(C)C)CC2)cc1 [Compound 42ELH90, 2-(4-Methoxyphenyl)-N-(4-chlorbenzyl)-N-(1-isopropylpiperidin-4-yl)acetamide]",~10 mg/kg
22,"CCN1CCC(N(Cc2ccc(C)cc2)C(=O)Cc2ccc(Cl)cc2)CC1 [Compound 47AKU-12, 2-(4-Chlorophenyl)-N-(4-methylbenzyl)-N-(1-ethylpiperidin-4-yl)acetamide]",≦10 mg/kg
23,COc1ccc(CC(=O)N(CCc2ccc(C)cc2)C2CCN(C)CC2)cc1 [Compound 50ELH68],≦10 mg/kg
24,"CN1CCC(N(Cc2ccc(F)cc2)C(=O)Cc2ccc(F)cc2)CC1 [Compound 50ELH6, 2-(4-Fluorophenyl)-N-(4-fluorobenzyl)-N-(1-methylpiperidin-4-yl)acetamide]",≦10 mg/kg
25,"Cc1ccc(CN(C(=O)Cc2ccc(OC(C)C)cc2)C2CCN(C)CC2)cc1 [Compound 58AKU-6, 2-(4-i-Propoxyphenyl)-N-(4-methylbenzyl)-N-(1-methylpiperidin-4-yl)acetamide]",≦10 mg/kg
26,"CCCCOc1ccc(CC(=O)N(Cc2ccc(C)cc2)C2CCN(C)CC2)cc1 [Compound 58AKU-5, 2-(4-Butoxyphenyl)-N-(4-methylbenzyl)-N-(1-methylpiperidin-4-yl)acetamide]",≦1 mg/kg
27,"Cc1ccc(CN(C(=O)Cc2ccc(Cl)cc2)C2CCN(C)CC2)cc1 [Compound 47AKU-8, 2-(4-Chlorophenyl)-N-(4-methylbenzyl)-N-(1-methylpiperidin-4-yl)-acetamide]",≦10 mg/kg
28,"COc1ccc(CC(=O)N(Cc2ccc(C)cc2)C2CCN(C(C)(C)C)CC2)cc1 [Compound 47AKU-49, 2-(4-Methoxyphenyl)-N-(4-methylbenzyl)-N-(1-t-butylpiperidin-4-yl)-acetamide]",≦10 mg/kg
